Measurements as given in patent US20240173353A1, “UNIVERSAL CHIMERIC ANTIGEN RECEPTOR T-CELL AND APPLICATION THEREOF” (SHANGHAI IASO BIOTECHNOLOGY CO., LTD., priority 2021, published 2024).
Read-outs that look alike come from different tables or passages of the source.

Experiments:
[1] = cited from earlier work
T cells = assay: T cell activation by anti-CD3/CD28 DynaBeads, CD25/CD69/4-1BB expression by flow cytometry
Description: The inventors pre-treated T cells with dasatinib or DMSO for 5 hr, then activated T cells with anti-CD3/CD28 DynaBeads for 24 hr, and then detected the expression of activation molecules CD25, CD69 and 4-1BB by flow cytometry.
In order to verify the tolerance of the LCK-T316I mutation to the function of dasatinib, the inventors carried out experimental verification on the T cells with LCK edited with different sgRNA lengths prepared in Example 2.
The inventors isolated CD3-positive T cells from human peripheral blood and divided them into eleven portions for processing, with 1e5 cells in each portion. One of these portions was not treated with dasatinib, anti-CD3/CD28 DynaBeads were not added to activate TCR, and this portion was as the initial control group; the other 10 portions of cells were pretreated with different concentrations of dasatinib for 4 hr, ten concentrations ranging from 0 nM to 50 nM were set, and then anti-CD3/CD28 DynaBeads were added to activate TCR signals overnight. On the second day, the expression of CD25, CD69 and 4-1BB activation signals was detected, and the activation of TCR signals was detected. Two replicates were set for each group of experiments.
The inventors divided each of the three groups of edited cells into 6 sub-groups and cultured them in a flat-bottomed 96-well plate. Each sub-group contained two technical replicates, and each well contained 0.15×10^6 cells. […] Subsequently, the cells were cultured for 18 hr. The activated T cell surface marker molecule 4-1BB was detected by using the APC-labeled murine IgG monoclonal antibody, and the activated T cell surface marker molecule CD25 was detected by using the PE-labeled murine IgG monoclonal antibody, and the activated T cell surface marker CD69 was detected by FITC-labeled murine IgG monoclonal antibody.
The inventors conducted research using two groups of T cells (CBE3 control group and Km edited group) in the above experiments. The experimental procedure is basically the same as the above-mentioned experiment (FIG. 32B). The two groups of edited cells were each divided into 7 sub-groups and cultured them in a flat-bottomed 96-well plate. Each sub-group contained two technical replicates, and each well contained 0.15×10^6 cells. […] Subsequently, the cells were cultured for 18 hr. The activated T cell surface marker molecule 4-1BB was detected by using the APC-labeled murine IgG monoclonal antibody, and the activated T cell surface marker molecule CD25 was detected by using the PE-labeled murine IgG monoclonal antibody, and the activated T cell surface marker CD69 was detected by FITC-labeled murine IgG monoclonal antibody.

NK cells = assay: CD107a release of NK cells activated by K562; type: cell-based, human
Method: The inventor used Miltenyi human NK sorting magnetic beads to separate NK cells from human peripheral blood, and used DAKEWE NK medium to culture and expand them in vitro. On Day 8, a population of NK cells with more than 95% having positive CD56 expression could be obtained. These NK cells were taken out and treated with 0 nM, 100 nM and 200 nM dasatinib respectively for 24 hr, and then divided into two groups, one of which was not activated, and the other group was stimulated with MHC-class I molecule-deficient K562 cells for 5 hr. Then, the CD107a release of NK cells were detected in both of them.
The inventors isolated NK cells from human PBMCs, and then cultured and differentiated them in NK medium to obtain CD56-positive NK cells with a purity higher than 95%. The exploration of the threshold of NK activation with dasatinib was carried out with seven concentrations in the range of 0-50 nM, namely 0, 10, 20, 25, 30, 40 and 50 nM, and the treatment was carried out overnight. The next day, the cells were resuspended with NK medium and activated with K562. Lymphocyte activator was used as a positive control for activation, and a part of NK cells that were not activated by K562 were also kept. Two replicates were set for each group. anti-CD107a antibody and monensin were added while carrying out activation, and after co-incubation for 6 hr, the CD107a release of CD56-positive NK cells was detected by flow cytometry.
The inventors isolated NK cells from human PBMCs, and then cultured and differentiated them in NK medium to obtain CD56-positive NK cells with a purity higher than 95%. Three pretreatments were done respectively (1) absence of dasatinib pretreatment; (2) pretreatment with […] pretreatment with 50 nM dasatinib, and the cells were cultured overnight. The next day, the concentration of dasatinib was reduced, and the concentration was adjusted to 0, 7.5, 12.5, 17.5 and 25 nM respectively. […] Two replicates were set for each group.
In order to repeatedly verify that the inhibition of NK cell activation function by dasatinib has an extended effect, the inventors repeated the above experiment. […] After 4 hr of co-incubation, CD107a release from CD56 positive NK cells was detected.
The inventors used CD3-negative cells in human PBMCs, which contained more than 5% of CD56-positive NK cells. […] The next day, the cells were resuspended with NK medium and activated with K562. Lymphocyte activator was used as a positive control for activation, and a part of NK cells that were not activated by K562 were also kept. Two replicates were set for each group. anti-CD107a antibody and monensin were added while carrying out activation, and after co-incubation for 6 hr, the CD107a release of CD56-positive NK cells was detected by flow cytometry.
The inventors isolated NK cells from human PBMCs, and then cultured and differentiated them in NK medium to obtain CD56-positive NK cells with a purity higher than 95%. […] Two replicates were set for each group.

CD5-UCAR-T cells = settings: reduced to 0 nM, Jurkat 4 hr
Method: Subsequently, they were treated overnight with dasatinib at a concentration of 50 nM or 25 nM, respectively. […] After 4 hr of co-incubation, CD107a release in CD8 and CAR double-positive cells was detected.
After 4 hr of co-incubation, CD107a release from CD8/CAR double-positive cells was detected.

[2] = system: normal human T lymphocytes; settings: in vitro; cited from earlier work
[3] = system: CD19/BCMA bispecific CAR-T cells; assay: CD107a translocation of CD19/BCMA bispecific CAR-T cells; type: cell-based, human; settings: CAR-T cells with LCK-T316I mutation, 100 nM dasatinib 12 hr, U266B1 and Raji
Description: The inventors edited the prepared CD19/BCMA dual-target CAR-T by electroporation with the CBE3 protein, the RNP complexes (18 nt and 21 nt) of CBE3 and LCK-sgRNA12, and the RNP complexes (18 nt and 21 nt) of CBE3 and LCK-sgRNA16 respectively, to achieve three different groups of editing treatments. […] These target cells include U266B1 (BCMA positive), Raji (CD19 positive), K562 (negative control), allogeneic T cells (negative control) and blank Buffer control (negative control).

[4] = T cells, 20 nM dasatinib 4 hr, beads overnight
[5] = T cells, 25 nM dasatinib 4 hr, beads overnight
[6] = T cells, dasatinib increased to 50 nM, beads overnight

## Cc1nc(Nc2ncc(C(=O)Nc3c(C)cccc3Cl)s2)cc(N2CCN(CCO)CC2)n1 [dasatinib]
[1]
  half-life in vivo: 3 to 4 h
T cells; T cells, 0-50 nM gradient
  concentration that effectively inhibits T cell activation in vitro (minimum): 25 nM
T cells; [4]
  percentage of CD25 and 4-1BB double-positive cells: 2.09%
  percentage of CD25 and CD69 double-positive cells: 8.75%
T cells; [5]
  percentage of CD25 and CD69 double-positive cells: 1.06%
  percentage of double-positive cells (FIG. 20B, CD25 and 4-1BB as indicators): 0.26%
T cells; T cells, 5 hr pretreatment, beads 24 hr
  concentration sufficient to inhibit activation of TCR signaling: 100 nM
T cells; [6]
  percentage of CD25 and CD69 double-positive cells: below 1%
  percentage of double-positive cells (FIG. 20B, CD25 and 4-1BB as indicators): below 1%
T cells; sgRNA16 group (about 50% edited), 100 nM dasatinib, anti-CD3/CD28 beads
  reduction of expression of activation molecules versus no dasatinib: 20%-50%
NK cells; 0-50 nM overnight, K562 6 hr
  concentration that effectively inhibits NK cell activation in vitro (minimum): 30 nM
NK cells; 24 hr treatment, K562 5 hr
  concentration enough to inhibit CD107a translocation and activation of NK cells: 100 nM
NK cells; NK cells without pretreatment, 7.5 nM dasatinib 4 hr, K562
  cells still activated: about 4.4%
NK cells; NK cells, 25 nM and 50 nM pretreatment, changed to 12.5, 17.5 and 25 nM, K562
  release of CD107a: lower than 1%
NK cells; NK cells, 25 nM and 50 nM pretreatment, reduced to 7.5 nM, K562
  release of CD107a: lower than 1%
NK cells; NK cells, 100 nM and 200 nM dasatinib 24 hr, K562 5 hr
  CD107a translocation: 2%
NK cells; NK cells, pretreatment with three dasatinib concentrations (0, 25, 50 nM), reduced to 0 nM, K562
  release of CD107a: above 58%
NK cells; NK cells, repeat, 50 nM pretreatment, reduced to 0 nM, K562 4 hr
  positive CD107a release: 39.7%
NK cells; non-activated NK cells, 100 nM and 200 nM dasatinib 24 hr
  basal CD107a translocation: 2%
CD5-UCAR-T cells; CD5-CART, repeat, 50 nM pretreatment
  positive CD107a release: 12.1%
CD5-UCAR-T cells; sg12 control CD5-UCART, 50 nM pretreatment overnight
  positive CD107a release: 12%
CD5-UCAR-T cells; sg16 (LCK-T316I) CD5-UCART, 50 nM pretreatment
  positive CD107a release: 16%
[2]
  viability of T cells: will not affect the viability of T cells
[3]
  CD107a positive rate: above 50%
